In ChEMBL document CHEMBL2346586, “N-substituted azaindoles as potent inhibitors of Cdc7 kinase” (Bioorg Med Chem Lett, 2013):

Legend:
[1] = target: Cyclin-dependent kinase 2 (Homo sapiens, UniProt P24941); assay: Inhibition of CDK2 (unknown origin)
[2] = target: T1, Cell division cycle 7-related protein kinase (Homo sapiens, UniProt O00311); assay: Inhibition of CDC7 (unknown origin)
[3] = species: Homo sapiens; assay: Selectivity ratio of IC50 for CDK2 (unknown origin) to IC50 for CDC7 (unknown origin)
[4] = Intrinsic clearance in rat liver microsomes; type: ADME, Microsome; conditions: read-out: CLH
[5] = Intrinsic clearance in human liver microsomes; type: ADME, Microsome; conditions: read-out: CLH
[6] = target: T1, Cell division cycle 7-related protein kinase; assay: Inhibition of CDC7 in human HCT116 cells assessed as MCM2 phosphorylation; type: cell-based, HCT-116

T1 sequence (O00311 whole entry): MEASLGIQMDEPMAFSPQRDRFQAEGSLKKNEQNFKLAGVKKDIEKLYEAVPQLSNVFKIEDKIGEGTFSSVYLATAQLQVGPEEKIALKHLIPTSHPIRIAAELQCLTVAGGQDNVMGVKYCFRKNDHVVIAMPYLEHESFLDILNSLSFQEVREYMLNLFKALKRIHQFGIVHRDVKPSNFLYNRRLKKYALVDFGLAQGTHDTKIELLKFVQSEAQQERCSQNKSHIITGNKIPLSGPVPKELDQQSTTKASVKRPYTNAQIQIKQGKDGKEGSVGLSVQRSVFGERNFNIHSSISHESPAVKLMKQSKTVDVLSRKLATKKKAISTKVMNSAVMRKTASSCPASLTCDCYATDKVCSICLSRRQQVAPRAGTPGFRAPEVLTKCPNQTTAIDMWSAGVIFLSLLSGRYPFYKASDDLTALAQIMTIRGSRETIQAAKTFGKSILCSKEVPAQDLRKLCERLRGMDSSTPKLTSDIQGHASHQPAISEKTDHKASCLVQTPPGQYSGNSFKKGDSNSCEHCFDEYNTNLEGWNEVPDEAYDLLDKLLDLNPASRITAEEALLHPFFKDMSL

Compound | IC50 [1] [µM] | IC50 [2] [nM] | Ratio IC50 [3] | microsomal CLint [4] [µL/min/mg] | microsomal CLint [5] [µL/min/mg] | IC50 [6] [µM]
Nc1nccc(-n2ccc3ccc(O)cc32)n1 | 5 | 3300 | – | – | – | –
N#Cc1ccc2c(ccn2-c2ccnc(N)n2)c1 | > 29.1 | 8500 | – | – | – | –
Nc1nccc(-n2ccc3ncccc32)n1 | 21 | 12600 | – | 50 | 60 | –
Nc1nccc(-n2cc(-c3ccoc3)c3cnccc32)n1 | 0.1 | 120 | – | – | – | –
Nc1nccc(-n2ccc3ccc(F)cc32)n1 | 34 | 156 | – | – | – | –
N#Cc1ccc2ccn(-c3ccnc(N)c3)c2c1 | 39 | 9000 | – | 122 | 201 | > 50
Nc1nccc(-n2ccc3ccc(Cl)cc32)n1 | 3.7 | 66 | 56 | – | – | –
Nc1nccc(-n2ccc3cccnc32)n1 | 42 | 26700 | – | 282 | 338 | > 50
Nc1nccc(-n2cc(-c3ccccc3Cl)c3cnccc32)n1 | 0.11 | 11 | – | – | – | –
Nc1nccc(-n2ccc3ccc(Br)cc32)n1 | 8.2 | 350 | – | – | – | –
N#Cc1cnc2ccn(-c3ccnc(N)n3)c2c1 | > 83 | 5300 | – | 64 | 108 | –
Nc1nccc(-n2ccc3ccc([N+](=O)[O-])cc32)n1 | > 30.6 | 82 | – | – | – | –
Nc1nccc(-n2ccc3cnc(Cl)cc32)n1 | 38 | 360 | > 100 | 134 | 104 | > 50
Nc1nccc(-n2cc(-c3cccnc3)c3cnccc32)n1 | 1.1 | 160 | 7 | – | – | –
Nc1nccc(-n2cc(C3=CCOCC3)c3cnccc32)n1 | 0.16 | 160 | – | – | – | –
C#Cc1ccc2ccn(-c3ccnc(N)n3)c2c1 | 10 | 760 | – | – | – | –
Nc1nccc(-n2ccc3ccncc32)n1 | 45.1 | 930 | – | 64 | 134 | –
Nc1nccc(-n2cc(-c3cccnc3Cl)c3cnc(Cl)cc32)n1 | > 83 | 30 | > 2700 | 102 | 30 | 2.3
Nc1nccc(-n2ccc3ccc(C(F)(F)F)cc32)n1 | 17 | 1100 | – | – | – | –
Nc1nccc(-n2cc(-c3cccc(Cl)c3)c3cnccc32)n1 | > 83 | 160 | > 500 | – | – | –
N#Cc1ccc2ccn(-c3cc(N)ncn3)c2c1 | > 83 | 2700 | – | – | – | –
Nc1nccc(-n2cc(-c3ccc(Cl)cc3)c3cnccc32)n1 | 0.06 | 330 | – | – | – | –
N#Cc1ccc2ccn(-c3ccnc(N)n3)c2c1 | 16.5 | 75 | 220 | 124 | 430 | 5
Nc1nccc(-n2cc(-c3cccnc3Cl)c3cnccc32)n1 | 0.31 | 7 | 44 | 72 | 21 | 0.85

Other lines, results leading:

IC50 [1] [µM] | IC50 [2] [nM] | Ratio IC50 [3] | microsomal CLint [4] [µL/min/mg] | microsomal CLint [5] [µL/min/mg] | IC50 [6] [µM] | Compound
0.16 | 250 | – | – | – | – | Nc1nccc(-n2cc(-c3ccncc3)c3cnccc32)n1
45 | 10400 | – | – | – | – | N#Cc1ccc2ccn(-c3cccc(N)n3)c2c1
0.31 | 104 | 3 | – | – | – | Nc1nccc(-n2cc(-c3ccccc3)c3cnccc32)n1
> 44 | 1240 | – | 49 | 94 | – | N#Cc1cc2c(ccn2-c2ccnc(N)n2)cn1
> 83 | 9 | – | 46 | 34 | 1.37 | N#Cc1ccc2ccn(-c3cc(N)ncn3)c2n1
> 29 | 8800 | – | – | – | – | N#Cc1ccc2ccn(-c3nccc(N)n3)c2c1
0.55 | 580 | – | – | – | – | Nc1nccc(-n2cc(-c3cc[nH]n3)c3cnccc32)n1
28.5 | 4700 | – | 375 | 387 | > 50 | Nc1nccc(-n2ccc3ccccc32)n1
3.7 | 980 | – | 101 | 62 | – | Nc1nccc(-n2ccc3cnccc32)n1
> 83 | 1500 | – | – | – | – | N#Cc1ccc2ccn(-c3ccncn3)c2c1
2.7 | 25 | – | – | – | – | CNc1nccc(-n2ccc3ccc(C#N)cc32)n1
